This passage reports mass density, refractive index and excess molar enthalpy results from the NIST ThermoML archive (doi:10.1021/je100095p).

For data set [1] the following is noted: 298.15 K; 101.33 kPa; Liquid; Vibrating tube method.
Data set [2] can be described thus: refractive index (Na D-line) (dimensionless). The conditions noted are these: 298.15 K; 101.33 kPa; Liquid; Standard Abbe refractometry.
Data set [3] in a line: excess molar enthalpy (molar enthalpy of mixing); xn = mol fraction of the nth substance listed. The conditions noted are these: 298.15 K, 101 kPa, Liquid, Calvet calorimetry.

SMILES strings stand for the structures. ± gives the expanded uncertainty stated by the source.

As usually defined, the mass density is mass per unit of volume. One may read the refractive index as a measure of how strongly the sample bends light. Consider `OCc1ccccc1` [benzenemethanol], for which, in data set [1], the mass density is on record as 1041.99 ± 0.26 kg/m3. In data set [2], the refractive index worked out at 1.5381 ± 0.0005.

On to `OCc1ccccc1` [benzenemethanol] + CCCCCCO, for which the excess molar enthalpy worked out at 0.025 ± 0.000621 kcal/mol in data set [3] (x1 = 0.0954); 0.0473 ± 0.00108 kcal/mol in data set [3] (x1 = 0.1959); 0.0647 ± 0.00143 kcal/mol in data set [3] (x1 = 0.291); 0.0775 ± 0.0017 kcal/mol in data set [3] (x1 = 0.3901); 0.0822 ± 0.00182 kcal/mol in data set [3] (x1 = 0.5072); 0.0818 ± 0.00179 kcal/mol in data set [3] (x1 = 0.598). Further, the excess molar enthalpy in data set [3] (x1 = 0.6996) was 0.074 ± 0.00163 kcal/mol; in data set [3] (x1 = 0.8022), 0.0576 ± 0.00129 kcal/mol; in data set [3] (x1 = 0.8986), 0.0348 ± 0.000813 kcal/mol.

Turning to `OCc1ccccc1` [benzenemethanol] + CCCCCO, the excess molar enthalpy in data set [3] (x1 = 0.1044) is 0.0229 ± 0.000574 kcal/mol; in data set [3] (x1 = 0.1968), 0.0403 ± 0.000932 kcal/mol; in data set [3] (x1 = 0.2902) it was 0.054 ± 0.00122 kcal/mol; in data set [3] (x1 = 0.3864) it was 0.0635 ± 0.00141 kcal/mol; in data set [3] (x1 = 0.4838), 0.0681 ± 0.00151 kcal/mol; in data set [3] (x1 = 0.5999), 0.0648 ± 0.00143 kcal/mol. Further, the excess molar enthalpy in data set [3] (x1 = 0.6988) came out at 0.0576 ± 0.00129 kcal/mol; in data set [3] (x1 = 0.7995) it was 0.0444 ± 0.001 kcal/mol; in data set [3] (x1 = 0.8992), 0.0253 ± 0.000621 kcal/mol.

For the molecule `OCc1ccccc1` [benzenemethanol] + CCCCO, the excess molar enthalpy is 0.0203 ± 0.000526 kcal/mol in data set [3] (x1 = 0.0976); 0.0356 ± 0.000837 kcal/mol in data set [3] (x1 = 0.1973); 0.0469 ± 0.00105 kcal/mol in data set [3] (x1 = 0.295); 0.0528 ± 0.0012 kcal/mol in data set [3] (x1 = 0.396); 0.0552 ± 0.00124 kcal/mol in data set [3] (x1 = 0.4931); 0.0507 ± 0.00115 kcal/mol in data set [3] (x1 = 0.6029). In addition, the values for the excess molar enthalpy in data set [3] (x1 = 0.7039), in data set [3] (x1 = 0.8026) and in data set [3] (x1 = 0.9017) were 0.0428 ± 0.00098 kcal/mol, 0.0317 ± 0.000741 kcal/mol and 0.0174 ± 0.000454 kcal/mol, respectively.

Take `OCc1ccccc1` [benzenemethanol] + CCCO: the excess molar enthalpy in data set [3] (x1 = 0.0984) stood at 0.0116 ± 0.000335 kcal/mol; in data set [3] (x1 = 0.1964) it was 0.0202 ± 0.000502 kcal/mol; in data set [3] (x1 = 0.2873) it was 0.0255 ± 0.000621 kcal/mol; in data set [3] (x1 = 0.3999), 0.0295 ± 0.000693 kcal/mol; in data set [3] (x1 = 0.4987), 0.0284 ± 0.000669 kcal/mol; in data set [3] (x1 = 0.5993), 0.0256 ± 0.000621 kcal/mol. Moreover, the excess molar enthalpy worked out at 0.0207 ± 0.000526 kcal/mol in data set [3] (x1 = 0.6983), 0.0147 ± 0.000406 kcal/mol in data set [3] (x1 = 0.7996) and 0.00772 ± 0.000263 kcal/mol in data set [3] (x1 = 0.8988).

Regarding `OCc1ccccc1` [benzenemethanol] + CCO, the excess molar enthalpy in data set [3] (x1 = 0.0746) came to 0.0175 ± 0.000454 kcal/mol; in data set [3] (x1 = 0.1514) it was 0.0312 ± 0.000741 kcal/mol; in data set [3] (x1 = 0.2275) it was 0.041 ± 0.000932 kcal/mol; in data set [3] (x1 = 0.3029), 0.0474 ± 0.00108 kcal/mol; in data set [3] (x1 = 0.3785) it was 0.0512 ± 0.00115 kcal/mol; in data set [3] (x1 = 0.4855), 0.0533 ± 0.0012 kcal/mol. In addition, the excess molar enthalpy in data set [3] (x1 = 0.5857) turned out to be 0.0497 ± 0.00112 kcal/mol; in data set [3] (x1 = 0.6883), 0.0422 ± 0.000956 kcal/mol; in data set [3] (x1 = 0.7915) it was 0.0309 ± 0.000741 kcal/mol; in data set [3] (x1 = 0.8949), 0.0171 ± 0.000454 kcal/mol.

Consider `OCc1ccccc1` [benzenemethanol] + CO, for which the excess molar enthalpy is -0.00363 ± 0.000215 kcal/mol in data set [3] (x1 = 0.07); -0.00798 ± 0.000287 kcal/mol in data set [3] (x1 = 0.1388); -0.0136 ± 0.000382 kcal/mol in data set [3] (x1 = 0.2057); -0.0189 ± 0.000478 kcal/mol in data set [3] (x1 = 0.2728); -0.024 ± 0.000598 kcal/mol in data set [3] (x1 = 0.3404); -0.0286 ± 0.000693 kcal/mol in data set [3] (x1 = 0.3992). For the same molecule, the excess molar enthalpy in data set [3] (x1 = 0.4995) was -0.0337 ± 0.000789 kcal/mol; in data set [3] (x1 = 0.5964) it was -0.0345 ± 0.000813 kcal/mol; in data set [3] (x1 = 0.6972), -0.0325 ± 0.000765 kcal/mol; in data set [3] (x1 = 0.7998), -0.0258 ± 0.000621 kcal/mol; in data set [3] (x1 = 0.9028), -0.0147 ± 0.000406 kcal/mol.

Regarding `CCCCO` [butan-1-ol], the mass density in data set [1] is on record as 805.75 ± 0.12 kg/m3. In data set [2], the refractive index is listed as 1.3974 ± 0.0005.

For the molecule `CCO` [ethanol], the mass density in data set [1] stood at 785.15 ± 0.12 kg/m3. In addition, the refractive index in data set [2] turned out to be 1.3595 ± 0.0005.

As to `CCCCCCO` [hexan-1-ol], the mass density in data set [1] was found to be 815.2 ± 0.64 kg/m3. Moreover, in data set [2], the refractive index is on record as 1.4165 ± 0.0006.

Consider `CO` [methanol], for which, in data set [1], the mass density is 786.5 ± 0.15 kg/m3. Moreover, in data set [2], the refractive index was 1.3266 ± 0.0005.

On to `CCCCCO` [pentan-1-ol], for which the mass density in data set [1] came out at 810.88 ± 0.24 kg/m3. The refractive index in data set [2] amounted to 1.4088 ± 0.0005.

Regarding `CCCO` [propan-1-ol], the mass density in data set [1] turned out to be 799.51 ± 0.12 kg/m3. For the same molecule, in data set [2], the refractive index is 1.3833 ± 0.0005.
